Results reported in article PMC6271415, “Synthesis and Docking Studies of 2,4,6-Trihydroxy-3-Geranylacetophenone Analogs as Potential Lipoxygenase Inhibitor” (Molecules, 2014).
Like-named read-outs stand apart in the source and are kept apart here.

What was measured:
soybean 15-LOX [1] = molecular target: T1, soybean 15-LOX (Glycine max, UniProt P08170); assay: In vitro soybean 15-lipoxygenase inhibition assay (spectrophotometric, linoleic acid substrate); format: biochemical; details: for inhibition at 100 µg/mL: read-out: % Inhibition (100 μg/mL)
T1 construct: purchased
T1 sequence (P08170 1-839): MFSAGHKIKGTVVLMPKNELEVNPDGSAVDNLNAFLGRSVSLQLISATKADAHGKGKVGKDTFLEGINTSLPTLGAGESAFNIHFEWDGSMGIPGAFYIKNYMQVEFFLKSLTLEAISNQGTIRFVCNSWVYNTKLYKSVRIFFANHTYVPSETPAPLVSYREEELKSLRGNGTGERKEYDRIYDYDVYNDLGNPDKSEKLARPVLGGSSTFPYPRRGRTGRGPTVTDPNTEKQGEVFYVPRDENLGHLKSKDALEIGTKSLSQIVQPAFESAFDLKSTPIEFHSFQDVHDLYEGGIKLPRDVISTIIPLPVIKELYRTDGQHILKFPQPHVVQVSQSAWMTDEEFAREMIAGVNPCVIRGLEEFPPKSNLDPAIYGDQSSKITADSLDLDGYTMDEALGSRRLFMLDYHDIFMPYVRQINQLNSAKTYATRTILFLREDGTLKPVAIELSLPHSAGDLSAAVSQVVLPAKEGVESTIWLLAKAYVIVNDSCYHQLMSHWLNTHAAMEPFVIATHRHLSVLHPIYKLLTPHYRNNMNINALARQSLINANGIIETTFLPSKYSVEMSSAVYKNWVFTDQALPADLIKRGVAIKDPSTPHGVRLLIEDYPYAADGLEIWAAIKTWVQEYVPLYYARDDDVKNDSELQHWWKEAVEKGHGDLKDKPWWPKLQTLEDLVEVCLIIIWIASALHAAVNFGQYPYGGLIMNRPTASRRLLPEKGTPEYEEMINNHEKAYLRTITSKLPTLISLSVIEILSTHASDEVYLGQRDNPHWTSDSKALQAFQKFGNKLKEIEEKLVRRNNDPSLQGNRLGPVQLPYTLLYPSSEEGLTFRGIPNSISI
Protocol: The target compounds (3a, 3c, 3e–g), intermediates (2a, 2c–g) and the starting material (1) were preliminary evaluated in vitro for their ability to inhibit soybean 15-LOX activity by using spectrophotometric method. Bioactivity screening for soybean 15-LOX inhibition by the target compounds was carried out at 100 μg/mL concentration. […] The bioactivities of the compounds were also compared to tHGA as the parent compound.
In vitro soybean 15-LOX inhibiting activity was measured using spectrophotometric method. In brief, sodium phosphate buffer (160 μL, 100 mM, pH 8.0), test sample (10 μL) and soybean 15-LOX (1.13.11.12) type I-B solution (20 μL, 320 U/well) were mixed and incubated for 15 min at 25 °C. The reaction was then initiated by the addition of the substrate in the form of linoleic acid (10 μL, 0.6 mM) solution. The enzymatic conversion of linoleic acid to form (9Z,11E)-(13S))-13-hydroperoxyoctadeca-9,11-dienoate end product was followed by the change of absorbance measured at 234 nm over a period for 6 min. Test samples and reference standards were dissolved in DMSO. Stock solutions were prepared at concentration 100 μg/mL for pure compounds. […] All reactions were performed in triplicate in a 96-well microtitre plate. The IC50 was calculated from the non-linear regression fitting curve of GraphPad Prism 5. The percentage of inhibition (%) can be calculated from the following formula [17]: [drawing 1] (1)

soybean 15-LOX [2] = molecular target: T1, soybean 15-LOX; design: method as in PMID 16644538; details: initial finding; read-out: IC50 against soybean 15-LOX (earlier studies); cited from earlier work
[3] = system: activated macrophage cells; design: method as in PMID 16644538; details: cited from earlier work
5-LOX = details: cited from earlier work
[4] = system: airway hyperresponsiveness to methacholine challenge; design: method as in PMID 21958738, PMID 22266348; details: compared with Zileuton; cited from earlier work
[5] = soybean 15-LOX, read-out: IC50 Value (μM) Mean ± SEM
[6] = rounded values printed in Figure 1, read-out: 15-LOX IC50 (Figure 1)
[7] = isolated from Hypericum empetrifolium, read-out: IC50 against 5-LOX

inhibition at 100 µg/mL (soybean 15-LOX [1]; 100 μg/mL, mean ± SEM) [%]	IC50 (soybean 15-LOX [1]; [5]) [µM]	Compound	further results
94.4 ± 3	12.3 ± 0.6	CCC(=O)c1c(O)cc(O)c(C/C=C(\C)CCC=C(C)C)c1O [3c, (E)-1-(3-(3,7-Dimethylocta-2,6-dienyl)-2,4,6-trihydroxyphenyl)propan-1-one]	–
88.8 ± 5.9	26.3 ± 1.3	CC(C)=CCC/C(C)=C/Cc1c(O)cc(O)c(C(=O)C2CCCCC2)c1O [3f, (E)-Cyclohexyl (3-(3,7-dimethylocta-2,6-dienyl)-2,4,6-trihydroxyphenyl)-methanone]	–
90.3 ± 4.4	10.3 ± 1.5	CCCCC(=O)c1c(O)cc(O)c(C/C=C(\C)CCC=C(C)C)c1O [3e, (E)-1-(3-(3,7-Dimethylocta-2,6-dienyl)-2,4,6-trihydroxyphenyl)pentan-1-one]	–
90.3 ± 4.1	27.6 ± 3.6	CC(C)=CCC/C(C)=C/Cc1c(O)cc(O)c(C(=O)C(C)C)c1O [3a, 3-Geranyl-1-(2'-methylpropanoyl)phloroglucinol]	IC50 (5-LOX; [7]): 2.2 µM; IC50 (soybean 15-LOX [1]; [6]): 27 µM
90.8 ± 7.6	15.2 ± 1.2	CC(C)=CCC/C(C)=C/Cc1c(O)cc(O)c(C(=O)/C=C/c2ccccc2)c1O [3g, (E)-1-(3-((E)-3,7-Dimethylocta-2,6-dienyl)-2,4,6-trihydroxyphenyl)-3-phenylprop-2-en-1-one]	–

Second part, the compound before the results:

Compound	inhibition at 100 µg/mL (soybean 15-LOX [1]; 100 μg/mL, mean ± SEM) [%]	IC50 (soybean 15-LOX [1]; [5]) [µM]	further results
CC(C)C(=O)c1c(O)cc(O)cc1O [2a, 2-Methyl-1-(2,4,6-trihydroxyphenyl)propan-1-one]	19.4 ± 5	> 100	–
Oc1cc(O)cc(O)c1 [compound 1, phloroglucinol]	23.2 ± 2.2	> 100	–
CC(=O)c1c(O)cc(O)c(C/C=C(\C)CCC=C(C)C)c1O [tHGA, 2,4,6-trihydroxy-3-geranylacetophenone]	94.3 ± 3.4	23.6 ± 1.7	IC50 (soybean 15-LOX [2]): 20 µM; inhibition of cysteinyl leukotriene secretion [3]: dose-dependent inhibition; IC50 (5-LOX; Figure 1, read-out: 5-LOX IC50): 0.42 µM; efficacy in acute murine asthma model (airway hyperresponsiveness, cellular infiltration, cytokines, cysLT, IgE) [4]: as effective as Zileuton; IC50 (soybean 15-LOX [1]; [6]): 23 µM
O=C(/C=C/c1ccccc1)c1c(O)cc(O)cc1O [2g, (E)-3-Phenyl-1-(2,4,6-trihydroxyphenyl)prop-2-en-1-one]	–	> 100	% Inhibition (100 μg/mL) (soybean 15-LOX [1]; 100 μg/mL, mean ± SEM): did not exhibit any anti-inflammatory activity
3-geranyl-1-(2'-methylbutanoyl)phloroglucinol [compound 4]	–	–	IC50 (5-LOX; [7]): 5.8 µM
CCC(=O)c1c(O)cc(O)cc1O [2c, 1-(2,4,6-Trihydroxyphenyl)propan-1-one]	–	> 100	% Inhibition (100 μg/mL) (soybean 15-LOX [1]; 100 μg/mL, mean ± SEM): did not exhibit any anti-inflammatory activity
O=C(c1c(O)cc(O)cc1O)C1CCCCC1 [2f, Cyclohexyl(2,4,6-trihydroxyphenyl)methanone]	17.5 ± 3	> 100	–
CC(C)(C)C(=O)c1c(O)cc(O)cc1O [2d, 2,2-Dimethyl-1-(2,4,6-trihydroxyphenyl)propane-1-one]	16.9 ± 1.9	> 100	–
CCCCC(=O)c1c(O)cc(O)cc1O [2e, 1-(2,4,6-Trihydroxyphenyl)pentan-1-one]	–	–	IC50 (soybean 15-LOX [1]): > 100 µM; inhibition at 100 µg/mL (soybean 15-LOX [1]): 24.5 ± 3.2%
